Counter-ions that a name gives are not always drawn. Like-named read-outs stand apart in the source and are kept apart here.
What was measured:
[1] = type: in vivo, male Wistar rats
Protocol: (§1) Four weeks after establishing infection, five rats were sacrificed, the left tibia aseptically removed and quantitative cultures performed. The remaining animals underwent surgical débridement of the infection site with sterile saline and were arbitrarily assigned to one of five study arms for a duration of 21 days: No treatment (n=17), vancomycin HCl every 12 hours (n=17, 42 doses), BT2-peg2-vancomycin diformate every 12 hours (n=17, 42 doses), BT2-peg2-vancomycin diformate every 12 hours for 3.5 days and then every fourth day thereafter (n=16, 11 doses), and BT2-peg2-vancomycin diformate once per week (n=15, 3 doses). Vancomycin HCl was administered at 50 mg/kg and BT2-peg2-vancomycin diformate at 63.85 mg/kg (equivalent to 50 mg/kg active vancomycin); both were administered intraperitoneally. Twelve hours after completion of therapy (day 50), blood was collected via cardiac puncture for hematology and chemistry studies [performed by Charles River (Wilmington, MA)], and drug concentration studies. Rats were sacrificed with CO2. The left (infected) tibia from one animal in each group was collected for histopathology with bones placed in 10% neutralized buffered formalin (NBF), decalcified, embedded in […], prepared as longitudinal cuts and stained with hematoxylin and eosin. The left (infected) tibias from the remaining animals were weighed, cryopulverized and processed for quantitative and qualitative bacterial culture. Culture results were expressed as log10 cfu/g of bone tissue.
Kidneys from all animals were weighed, observed for abnormalities in size or color, and placed in NBF. Histological analysis was performed by Seventh Wave (Chesterfield, MO). Microscopic lesions were graded on a scale of one to four, with four being the most severe. Tubulointerstitial nephritis was characterized by multifocal non-suppurative interstitial inflammation, interstitial fibrosis, tubular epithelial degeneration, necrosis, and regeneration with frequent intra-tubular neutrophilic inflammation and cellular debris.

[2] = Plasma concentrations in infected animals by LC/MS; type: in vivo, male Wistar rats
Protocol: as §1
Plasma concentrations of BT2-peg2-vancomycin in infected animals were measured by liquid chromatography/mass spectrometry (LC/MS). […] The elutes (50 μl) were diluted with 450 μl 5% ACN in 0.1% formic acid and analyzed by Accela LC System (Thermo Scientific, San Jose, CA) coupled with a LTQ-Orbitrap XL mass spectrometer (Thermo Scientific, San Jose, CA). […] Elutes from the LC column were ionized by electrospray ionization and BT2-peg2-vancomycin and teicoplanin were detected by multiple reaction monitoring. […]
Plasma concentrations of vancomycin were measured by LC/MS. […]

[3] = rat, in vivo, 63.85 mg/kg; cited from earlier work
Protocol: Chemical conjugation of vancomycin to a bone-targeting moiety would theoretically yield a compound targeting delivery of vancomycin to bone, a strategy that could be useful in the treatment of bone infection. Pradama Inc. has developed a bone-targeted vancomycin, BT2-peg2-vancomycin (Figure 1) (Pierce et al. [2011]). Previous studies show concentrations of BT2-peg2-vancomycin twelve hours after a single injection (63.85 mg/kg, equivalent to 50 mg/kg vancomycin) were 27.97 and 14.18 μg/ml for plasma and bone, respectively. Concentrations of BT2-peg2-vancomycin after seven doses given every 12 h ...

[4] = test system: Thirty clinical isolates of MRSA; experiment: microbe, parasite or virus in culture; type: cell-based, Staphylococcus aureus
Protocol: (§2) Thirty clinical isolates of MRSA were studied. […] The minimum bactericidal concentration (MBC) of vancomycin HCl and BT2-peg2-vancomycin diacetate were also determined according to CLSI guidelines (Clinical and Laboratory Standards Institute [1999]).

[5] = Hydroxyapatite (HA) binding assay; details: 50 mM Tris–HCl pH 7.4, 1% DMSO
Protocol: 10^-5 M solutions of tetracycline, vancomycin HCl or BT2-peg2-vancomycin diacetate in 50 mM Tris–HCl buffer, pH 7.4, 1% DMSO were prepared. […] An HA slurry of 0.5 g HA/100 ml 50 mM Tris–HCl buffer, 1% DMSO was prepared. For each analyte, two samples were tested in triplicate. For one sample, 1 ml of 10^-5 M analyte and 100 μl 50 mM Tris–HCl buffer, 1% DMSO was pipetted into a microcentrifuge tube. For the second sample, 1 ml of 10^-5 M analyte and 100 μl of the HA slurry was pipetted into a microcentrifuge tube. The samples were mixed gently by inversion for five minutes and then centrifuged at 12,000 g for three minutes to sediment the HA. The supernatant was transferred to another microcentrifuge tube. An electronic spectral scan (ultraviolet–visible) from 220–520 nm was obtained for each analyte using a Varian Cary 300 Bio Scan (Agilent Technologies, Santa Clara, CA). The blank was 50 mM Tris–HCl buffer, 1% DMSO. The wavelength of maximum absorbance (λmax) was determined, and the extinction coefficient (ϵ) calculated using the Beer-Lambert law. Absorbance of the samples incubated with HA was measured at λmax, and the molar concentration of the analyte determined using the Beer-Lambert law and the previously calculated extinction coefficient. The fraction adsorbed to HA was calculated for each sample. […]

MRSA IDRL-4293 = type: cell-based, Staphylococcus aureus; details: MRSA isolate used in the experimental osteomyelitis model
Protocol: as §2
The experimental model described was performed in accordance with the guidelines of the Institutional Animal Care and Use Committee of the Mayo Clinic. Experimental osteomyelitis was established in 90 male Wistar rats using a modification of Zak’s model of experimental osteomyelitis (O'Reilly & Mader [1999]). […] Animals were anesthetized with ketamine and xylazine and the proximal third of the medial left tibia surgically exposed. A 0.5 mm hole was drilled into the medullary cavity. Fifty microliters of morrhuate sodium (a sclerosing agent) was injected into the cavity, followed by 50 μl sterile saline containing 10^7 colony forming units (cfu) of MRSA IDRL-4293. The muscle was reattached with coated vicryl sutures (Ethicon, Somerville, NJ). The skin was closed with tissue glue (Tissuemend, Butler Animal Health Supply, Dublin, OH) and wound clips (Harvard Apparatus, Holliston, MA). The wound was sprayed with a wound adhesive (Aluspray, Butler Animal Health Supply, Dublin, OH), along with a chewing repellent (Chewguard, Summit Hill Laboratories, Tinton Falls, NJ).

[6] = test system: Thirty clinical isolates of MRSA; type: cell-based, Staphylococcus aureus; details: CLSI; 30 MRSA isolates
Protocol: as §2

[7] = test system: MRSA recovered from treated or untreated animals; type: cell-based, Staphylococcus aureus
Protocol: as §2
Ten MRSA colonies per animal recovered from quantitative bacterial cultures were tested for susceptibility to BT2-peg2-vancomycin diformate and/or vancomycin HCl.

[8] = male, Wistar, rat, in vivo, ip, 63.85 mg/kg
[9] = broth microdilution, CLSI, 30 MRSA isolates

## CN[C@H](CC(C)C)C(=O)N[C@H]1C(=O)N[C@@H](CC(N)=O)C(=O)N[C@H]2C(=O)N[C@H]3C(=O)N[C@H](C(=O)N[C@H](C(=O)NCCOCCOCC(=O)Nc4ccc(OC)c(C(N)=O)c4O)c4cc(O)cc(O)c4-c4cc3ccc4O)[C@H](O)c3ccc(c(Cl)c3)Oc3cc2cc(c3O[C@@H]2O[C@H](CO)[C@@H](O)[C@H](O)[C@H]2O[C@H]2C[C@](C)(N)[C@H](O)[C@H](C)O2)Oc2ccc(cc2Cl)[C@H]1O [BT2-peg2-vancomycin diformate]
[1]; rat, in vivo
  kidney size: ~ 25.5 × 17.5 mm
[1]; rat, in vivo, ip
  kidney gross appearance (color, size): lighter in color and larger
  kidney histology: tubulointerstitial nephritis grade: 4

## CN[C@H](CC(C)C)C(=O)N[C@H]1C(=O)N[C@@H](CC(N)=O)C(=O)N[C@H]2C(=O)N[C@H]3C(=O)N[C@H](C(=O)N[C@H](C(=O)NCCOCCOCC(=O)Nc4ccc(OC)c(C(N)=O)c4O)c4cc(O)cc(O)c4-c4cc3ccc4O)[C@H](O)c3ccc(c(Cl)c3)Oc3cc2cc(c3O[C@@H]2O[C@H](CO)[C@@H](O)[C@H](O)[C@H]2O[C@H]2C[C@](C)(N)[C@H](O)[C@H](C)O2)Oc2ccc(cc2Cl)[C@H]1O [BT2-peg2-vancomycin]
[2]; [8]
  level at 12 h: 130000 ng/mL
  level at 48 h: 880 ng/mL
[3]
  bone concentration: 14.18 µg/mL
  plasma concentration: 27970 ng/mL
[4]; Thirty clinical isolates of
  MIC at which 50% of the isolates were inhibited (MIC50): 1 µg/mL
  MIC at which 90% of the isolates were inhibited (MIC90): 2 µg/mL

## Cc1onc(-c2ccccc2)c1C(=O)N[C@@H]1C(=O)N2[C@@H]1SC(C)(C)[C@@H]2C(=O)O [oxacillin]
[4]; Staphylococcus aureus, broth microdilution, CLSI, 30 MRSA isolates, read-out: MIC at which 50% of the isolates were inhibited (MIC50)
  MIC50: > 128 µg/mL

## CN(C)[C@@H]1C(O)=C(C(N)=O)C(=O)[C@@]2(O)C(O)=C3C(=O)c4c(O)cccc4[C@@](C)(O)[C@H]3C[C@@H]12 [tetracycline]
[5]; at 10^-5 M, reference analyte
  fraction bound to HA: approximately 50%

## CN[C@H](CC(C)C)C(=O)N[C@H]1C(=O)N[C@@H](CC(N)=O)C(=O)N[C@H]2C(=O)N[C@H]3C(=O)N[C@H](C(=O)N[C@H](C(=O)O)c4cc(O)cc(O)c4-c4cc3ccc4O)[C@H](O)c3ccc(c(Cl)c3)Oc3cc2cc(c3O[C@@H]2O[C@H](CO)[C@@H](O)[C@H](O)[C@H]2O[C@H]2C[C@](C)(N)[C@H](O)[C@H](C)O2)Oc2ccc(cc2Cl)[C@H]1O [vancomycin HCl]
MRSA IDRL-4293
  MBC: 2 µg/mL
  MIC: 2 µg/mL
[1]; every 12 hours for 21 days ip
  kidney gross appearance (color, size): deep maroon color and size consistent with body weight
[1]; every 12 hours for 21 days ip, lesions graded one to four, four most severe
  kidney histology: tubulointerstitial nephritis grade: did not exhibit microscopic abnormalities
[1]; twice daily for 21 days ip, vancomycin HCl 50 mg/kg, BTV 63.85 mg/kg, no treatment 1.4
  Kidney weight, median (range): 1.4 (1.1-1.7) grams
[1]; twice daily for 21 days ip, vancomycin HCl 50 mg/kg, BTV 63.85 mg/kg, normal 9–30
  BUN, median (range): 18.5 (15–21) mg/dl
[1]; twice daily for 21 days ip, vancomycin HCl 50 mg/kg, BTV 63.85 mg/kg, normal range 0.4 to 0.7
  Creatinine, median (range): 0.5 (0.4-0.6) mg/dl
[1]; twice daily for 21 days ip, vancomycin HCl 50 mg/kg, BTV 63.85 mg/kg, normal range 3.2 to 4.5
  Albumin, median (range): 3.4 (3.1-3.6) g/dl
[6]
  MBC at which 50% of isolates were killed: 2 µg/mL
  MBC range: 0.5 to 64 µg/mL
[4]; [9]
  MIC range: 0.5 to 2 µg/mL

## CN[C@H](CC(C)C)C(=O)N[C@H]1C(=O)N[C@@H](CC(N)=O)C(=O)N[C@H]2C(=O)N[C@H]3C(=O)N[C@H](C(=O)N[C@H](C(=O)O)c4cc(O)cc(O)c4-c4cc3ccc4O)[C@H](O)c3ccc(c(Cl)c3)Oc3cc2cc(c3O[C@@H]2O[C@H](CO)[C@@H](O)[C@H](O)[C@H]2O[C@H]2C[C@](C)(N)[C@H](O)[C@H](C)O2)Oc2ccc(cc2Cl)[C@H]1O [vancomycin]
[5]; 10^-5 M analyte, HA slurry, mixed 5 min, UV–vis at λmax, triplicate, % bound/% tetracycline bound × 100
  HA binding index: 0
[2]; 12 h after last dose, twice daily for 21 days ip, vancomycin HCl 50 mg/kg (n=16), BTV 63.85 mg/kg (n=13), LC/MS
  Plasma concentration, median: 710 ng/mL
[6]
  MBC at which 90% of isolates were killed (MBC90): 16 µg/mL
[7]; all treatment groups
  increase in MIC of recovered isolates: No increase in vancomycin or BT2-peg2-vancomycin MIC of more than one doubling dilution
[7]; isolates from animals treated with BT2-peg2-vancomycin diformate once weekly
  MIC of recovered MRSA: 1 to 2 µg/mL
[7]; isolates from animals treated with BT2-peg2-vancomycin diformate twice daily
  MIC of recovered MRSA: 1 to 4 µg/mL
[7]; isolates from animals treated with BT2-peg2-vancomycin diformate twice daily for 3.5 days then once every fourth day
  MIC of recovered MRSA: 1 to 2 µg/mL
[7]; isolates recovered from the untreated group
  MIC of recovered MRSA: 1 to 2 µg/mL
[7]; isolates recovered from vancomycin HCl-treated animals
  MIC of recovered MRSA: 2 to 4 µg/mL
[4]; [9]
  MIC at which 50% of the isolates were inhibited (MIC50): 1 µg/mL
  MIC at which 90% of the isolates were inhibited (MIC90): 2 µg/mL

Reference: paper PMC4320154, “Treatment of Methicillin-resistant Staphylococcus aureus experimental Osteomyelitis with bone-targeted Vancomycin” (SpringerPlus, 2013)
